Test results taken from ChEMBL document CHEMBL3885881, “DrugMatrix”.

Organism: Rattus norvegicus
Assay: DrugMatrix - Regimen: Daily Repeat
Assay type: toxicity, organism-based, Sprague-Dawley
Parameters: regimen Daily Repeat, gender Male, age 6-8 weeks
Conditions: in vivo, po, route oral GAVAGE, vehicle .5 % CMC; for ABSOLUTE BASOPHIL / ABSOLUTE EOSINOPHIL / ABSOLUTE LYMPHOCYTE / ABSOLUTE MONOCYTE / ABSOLUTE SEGMENTED NEUTROPHIL / BASOPHIL / EOSINOPHIL / ERYTHROCYTE COUNT / HEMATOCRIT / HEMOGLOBIN / LEUKOCYTE COUNT / LYMPHOCYTE / MEAN CORPUSCULAR HEMOGLOBIN / MEAN CORPUSCULAR HEMOGLOBIN CONCENTRATION / MEAN CORPUSCULAR VOLUME / MONOCYTE / NEUTROPHIL / NUCLEATED RED BLOOD CELLS / PLATELET COUNT: tissue Blood; for ALANINE AMINOTRANSFERASE / ALBUMIN / ALKALINE PHOSPHATASE / ASPARTATE AMINOTRANSFERASE / BLOOD UREA NITROGEN / CARBON DIOXIDE / CHLORIDE / CHOLESTEROL / CREATINE PHOSPHOKINASE / CREATININE / GLUCOSE / LACTATE DEHYDROGENASE / LIPASE / PHOSPHORUS / POTASSIUM / SODIUM / TOTAL BILIRUBIN / TOTAL PROTEIN / URIC ACID: tissue Plasma
[1] = 0 mg/kg, 72 h, dose level Control, time 3 day
[2] = 0 mg/kg, 120 h, dose level Control, time 5 day
[3] = 100 mg/kg, 72 h, dose level Low, time 3 day

COC1=C(OC)C(=O)C(CCCCCCCCCCO)=C(C)C1=O [IDEBENONE]
ABSOLUTE BASOPHIL [1]: 0 CELLS/uL
ABSOLUTE EOSINOPHIL [1]: 0 CELLS/uL
ABSOLUTE LYMPHOCYTE [1]: 12191.17 CELLS/uL
ABSOLUTE MONOCYTE [1]: 183.17 CELLS/uL
ABSOLUTE SEGMENTED NEUTROPHIL [1]: 1192.33 CELLS/uL
BASOPHIL [1]: 0%
EOSINOPHIL [1]: 0%
ERYTHROCYTE COUNT [1]: 5.51 x10E6/uL
HEMATOCRIT [1]: 35.45%
HEMOGLOBIN [1]: 13.82 G/DL
LEUKOCYTE COUNT [1]: 13.57 x10E3/uL
LYMPHOCYTE [1]: 89.83%
MEAN CORPUSCULAR HEMOGLOBIN [1]: 25.1 pg
MEAN CORPUSCULAR HEMOGLOBIN CONCENTRATION [1]: 38.98 G/DL
MEAN CORPUSCULAR VOLUME [1]: 64.42 fL
MONOCYTE [1]: 1.33%
NEUTROPHIL [1]: 8.83%
NUCLEATED RED BLOOD CELLS [1]: 0 /100WBC
PLATELET COUNT [1]: 1118.17 x10E3/uL
ALANINE AMINOTRANSFERASE [1]: 55 u/L
ALBUMIN [1]: 4.15 G/DL
ALKALINE PHOSPHATASE [1]: 449.5 u/L
ASPARTATE AMINOTRANSFERASE [1]: 112.83 u/L
BLOOD UREA NITROGEN [1]: 17.33 mg/dL
CARBON DIOXIDE [1]: 29.5 mmol/L
CHLORIDE [1]: 101 MEQ/L
CHOLESTEROL [1]: 70 mg/dL
CREATINE PHOSPHOKINASE [1]: 1325.83 u/L
CREATININE [1]: 0.18 mg/dL
GLUCOSE [1]: 171.5 mg/dL
LACTATE DEHYDROGENASE [1]: 386 u/L
LIPASE [1]: 10 u/L
PHOSPHORUS [1]: 11.57 mg/dL
POTASSIUM [1]: 6.21 MEQ/L
SODIUM [1]: 141.65 MEQ/L
TOTAL BILIRUBIN [1]: 0.15 mg/dL
TOTAL PROTEIN [1]: 5.75 G/DL
URIC ACID [1]: 1.28 mg/dL
ABSOLUTE BASOPHIL [2]: 0 CELLS/uL
ABSOLUTE EOSINOPHIL [2]: 138.17 CELLS/uL
ABSOLUTE LYMPHOCYTE [2]: 13283.17 CELLS/uL
ABSOLUTE MONOCYTE [2]: 303.83 CELLS/uL
ABSOLUTE SEGMENTED NEUTROPHIL [2]: 1308.17 CELLS/uL
BASOPHIL [2]: 0%
EOSINOPHIL [2]: 1%
ERYTHROCYTE COUNT [2]: 5.32 x10E6/uL
HEMATOCRIT [2]: 33.8%
HEMOGLOBIN [2]: 13.63 G/DL
LEUKOCYTE COUNT [2]: 15.03 x10E3/uL
LYMPHOCYTE [2]: 88.33%
MEAN CORPUSCULAR HEMOGLOBIN [2]: 25.68 pg
MEAN CORPUSCULAR HEMOGLOBIN CONCENTRATION [2]: 40.35 G/DL
MEAN CORPUSCULAR VOLUME [2]: 63.67 fL
MONOCYTE [2]: 1.83%
NEUTROPHIL [2]: 8.83%
NUCLEATED RED BLOOD CELLS [2]: 0 /100WBC
PLATELET COUNT [2]: 1097.5 x10E3/uL
ALANINE AMINOTRANSFERASE [2]: 54.5 u/L
ALBUMIN [2]: 4.27 G/DL
ALKALINE PHOSPHATASE [2]: 337 u/L
ASPARTATE AMINOTRANSFERASE [2]: 94.67 u/L
BLOOD UREA NITROGEN [2]: 17 mg/dL
CARBON DIOXIDE [2]: 28.33 mmol/L
CHLORIDE [2]: 101.5 MEQ/L
CHOLESTEROL [2]: 71.33 mg/dL
CREATINE PHOSPHOKINASE [2]: 628.17 u/L
CREATININE [2]: 0.19 mg/dL
GLUCOSE [2]: 177.83 mg/dL
LACTATE DEHYDROGENASE [2]: 500.5 u/L
LIPASE [2]: 9.5 u/L
PHOSPHORUS [2]: 12.3 mg/dL
POTASSIUM [2]: 5.63 MEQ/L
SODIUM [2]: 143.03 MEQ/L
TOTAL BILIRUBIN [2]: 0.2 mg/dL
TOTAL PROTEIN [2]: 6.02 G/DL
URIC ACID [2]: 1.5 mg/dL
ABSOLUTE BASOPHIL [3]: 0 CELLS/uL
ABSOLUTE EOSINOPHIL [3]: 86.67 CELLS/uL
ABSOLUTE LYMPHOCYTE [3]: 16240.33 CELLS/uL
ABSOLUTE MONOCYTE [3]: 104 CELLS/uL
ABSOLUTE SEGMENTED NEUTROPHIL [3]: 1602.33 CELLS/uL
BASOPHIL [3]: 0%
EOSINOPHIL [3]: 0.67%
ERYTHROCYTE COUNT [3]: 5.22 x10E6/uL
HEMATOCRIT [3]: 32.37%
HEMOGLOBIN [3]: 13.17 G/DL
LEUKOCYTE COUNT [3]: 18.03 x10E3/uL
LYMPHOCYTE [3]: 90.33%
MEAN CORPUSCULAR HEMOGLOBIN [3]: 25.27 pg
MEAN CORPUSCULAR HEMOGLOBIN CONCENTRATION [3]: 40.67 G/DL
MEAN CORPUSCULAR VOLUME [3]: 62.07 fL
MONOCYTE [3]: 0.67%
NEUTROPHIL [3]: 8.33%
NUCLEATED RED BLOOD CELLS [3]: 0 /100WBC
PLATELET COUNT [3]: 1354 x10E3/uL
ALANINE AMINOTRANSFERASE [3]: 57.67 u/L
ALBUMIN [3]: 3.97 G/DL
ALKALINE PHOSPHATASE [3]: 401 u/L
ASPARTATE AMINOTRANSFERASE [3]: 105.67 u/L
BLOOD UREA NITROGEN [3]: 17.67 mg/dL
CARBON DIOXIDE [3]: 26.33 mmol/L
CHLORIDE [3]: 101 MEQ/L
CHOLESTEROL [3]: 67 mg/dL
CREATINE PHOSPHOKINASE [3]: 961.67 u/L
CREATININE [3]: 0.19 mg/dL
GLUCOSE [3]: 227 mg/dL
LACTATE DEHYDROGENASE [3]: 252 u/L
LIPASE [3]: 9.67 u/L
PHOSPHORUS [3]: 13.13 mg/dL
POTASSIUM [3]: 6.02 MEQ/L
SODIUM [3]: 142.43 MEQ/L
TOTAL BILIRUBIN [3]: 0.2 mg/dL
TOTAL PROTEIN [3]: 5.47 G/DL
URIC ACID [3]: 1.67 mg/dL
